Results as given in PubChem BioAssay (NCI).
“And” between values parts separate entries of the source, which are not always exact repeats. Equal entries are not always repeated.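 Where inhibition never reached the appropriate level, the endpoint shown equals the highest concentration tested. Otherwise, values were interpolated linearly from a five-concentration, 48-hour dose response in 96-well plates. The concentration for 50% growth inhibition is given as GI50. TGI denotes the concentration required for complete inhibition of growth.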

Tests used:
Test in all cases: NCI anticancer screen, dose series, 48 h
[1] = tested on: CCRF-CEM leukemia
[2] = tested on: COLO 205 colon
[3] = tested on: HOP-62 NSCLC
[4] = tested on: 786-0 renal
[5] = tested on: A549 NSCLC
[6] = tested on: NCI-H522 lung
[7] = tested on: SF-268 CNS
[8] = tested on: SNB-75 CNS
[9] = tested on: SK-MEL-2 melanoma
[10] = tested on: IGROV1 ovarian

| Compound | TGI [1] [µM] | TGI [2] | TGI [3] | TGI [4] | TGI [5] | TGI [6] | TGI [7] [µM] | TGI [8] [µM] | TGI [9] [µM] | TGI [10] | GI50 [1] [µM] | GI50 [2] [µM] | GI50 [3] [µM] | GI50 [4] [µM] | GI50 [5] [µM] | GI50 [6] [µM] | GI50 [7] [µM] | GI50 [8] [µM] | GI50 [9] [µM] | GI50 [10] [µM] |
| --- | --- | --- | --- | --- | --- | --- | --- | --- | --- | --- | --- | --- | --- | --- | --- | --- | --- | --- | --- | --- |
| COc1cc(C2c3cc4c(cc3[C@@H](N(C)C)[C@H]3COC(=O)C23)OCO4)cc(OC)c1O (stereo not given in full) | > 100 | > 100 µM | > 100 µM | > 100 µM | > 100 µM | 18.8 µM | > 100 | > 100 | > 100 | > 100 µM |  |  |  |  |  |  |  |  |  |  |
| Cc1c(C(=O)CC(=O)C(=O)Nc2cc(Cl)ccc2Cl)[n+](=O)c2ccccc2n1[O-] | > 100 | 69.6 µM | > 100 µM | > 100 µM | > 100 µM | 53.6 µM | > 100 | 78.1 | > 100 | > 100 µM |  |  |  |  |  |  |  |  |  |  |
| Oc1c(CN2CCCC2)cc(CSCc2ccccc2)c2cccnc12 | 10.2 | 18.7 µM | 7.78 µM | 6.09 µM | 10.6 µM | 3.77 µM | 14.9 | 15.9 | 7.21 | 11.3 µM | 0.429 | 4.82 | 0.513 | 0.728 | 1.73 | 1.14 | 0.752 | 1.5 | 1.86 | 1.93 |
| COc1cc2c(c(OC)c1OC)-c1ccc(O)c(=O)cc1[C@@H](NC(C)=O)CC2 | > 100 | > 100 µM and 35.4 µM | > 100 µM and 65.9 µM | 62 µM and 92.1 µM | 89.3 µM and > 100 µM | 90.8 µM and 36.4 µM | > 100 | > 100 | > 100 | > 100 µM and 82.4 µM | 3.67 | 4.1 | 10.7 | 12.3 | 10.1 | 4.64 | 7.42 | 16.3 | 20 | 4.76 |
| Clc1ccc2ns[s+]c2c1 | > 81.9 | > 44.9 µM | > 29.9 µM | > 100 µM | > 100 µM | > 100 µM | > 100 | > 100 | > 82.5 | > 100 µM |  |  |  |  |  |  |  |  |  |  |
| CC(C(=O)O)c1ccc(-c2ccccc2)c(F)c1 (stereo not given) | > 100 | > 100 µM | > 100 µM | > 100 µM | > 100 µM | > 100 µM | > 100 | > 100 | > 100 | > 100 µM |  |  |  |  |  |  |  |  |  |  |
| CCCCN(CCCC)CCc1c(C)cc(C)c(CCN(CCCC)CCCC)c1O | > 100 | 4.14 µM | 16.8 µM | 9.93 µM | > 100 µM | 7.54 µM | > 100 | 40.3 | 5.78 | 35.6 µM | 3.12 | 1.96 | 3.3 | 2.96 | 3 | 2.59 | 3.23 | 2.52 | 2.24 | 3.69 |
| CCC[CH2][Sn]1([CH2]CCC)[O]C(=O)c2ccc(N)cc2[O]1 | 1.85 | 1.98 µM | 2.82 µM | 1.61 µM | 7.4 µM | 0.179 µM | 1.5 | 1.84 | 0.913 | 2.97 µM | 0.0357 | 0.594 | 1.35 | 0.41 | 2.62 | 0.048 | 0.259 | 0.116 | 0.141 | 1.51 |
| COC(=O)[C@H]1[C@H]2C[C@@H]3c4[nH]c5cc(OC)ccc5c4CCN3C[C@H]2C[C@@H](OC(=O)/C=C/c2cc(OC)c(OC)c(OC)c2)[C@@H]1OC | 5.62 | 14.8 µM | 25.5 µM | 26.3 µM | > 100 µM | 27 µM | > 100 | 20.2 | 19.8 | 34.6 µM | 1.48 | 3.69 | 5.99 | 9.86 | 8.89 | 10.4 | 9.48 | 5.19 | 5.73 | 6.72 |
| O=C(CSc1nc(-c2ccccc2)c(-c2ccccc2)[nH]1)NNC(=S)Nc1ccccc1 | > 100 | > 100 µM | > 100 µM | > 100 µM | > 100 µM | > 100 µM | > 100 | > 100 | > 100 | > 100 µM |  |  |  |  |  |  |  |  |  |  |
| COC(=O)[C@]1(C)C(OC)=CC(=O)C2C1[C@H]1CCC[C@@H]21 (stereo not given in full) | > 100 | > 100 µM | > 100 µM | > 100 µM | > 100 µM | > 100 µM | > 100 | > 100 | > 100 | > 100 µM |  |  |  |  |  |  |  |  |  |  |
| [N-]=[N+]=CC(=O)COC(=O)c1ccccc1 | > 100 | > 100 µM | > 100 µM | > 100 µM | > 100 µM | > 100 µM | > 100 | > 100 | > 100 | > 100 µM |  |  |  |  |  |  |  |  |  |  |
| CCOC(=O)Nc1nc2cc(OCC)ccc2s1 | > 100 | > 100 µM | > 100 µM | > 100 µM | > 100 µM | > 100 µM | > 100 | > 100 | > 100 | > 100 µM | > 100 | 7.84 | 38.4 | > 100 | 9.83 | 6.05 | > 79.7 | 53.8 | 16.3 | > 91.1 |
| O=C(Nc1ccc(Br)cc1)Nc1nn(C(=O)Nc2ccc(Br)cc2)c2ccccc12 | > 22.8 | > 100 µM | > 72.8 µM | > 100 µM | > 100 µM | > 100 µM | > 63.9 | 28.7 | > 100 | > 100 µM | 7.08 | > 100 | 26.4 | 34.3 | 51.5 | 31 | 17.6 | 8.26 | 23.7 | 52.6 |
| COc1cc2c3c(c1OC)C1(C=CC(=O)C=C1)CC3NCC2 (stereo not given) | > 100 | > 100 µM | > 100 µM | > 100 µM | > 100 µM | > 100 µM | > 100 | > 100 | > 100 | > 100 µM |  |  |  |  |  |  |  |  |  |  |
